In patent US8802661B2, “C-28 amides of modified C-3 betulinic acid derivatives as HIV maturation inhibitors” (priority 2010, dated 2014):
Where two headings read alike, the source gives them in different places.

Test system: recombinant NL4-3 virus (Renilla luciferase in nef, Gag P373S)
Assay: HIV Cell Culture Assay (luciferase reporter virus in MT-2 cells)
Type: cell-based
In short: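 MT-2 cells infected 4–5 days with NL4-3 carrying Renilla luciferase in nef and Gag P373S, with serial dilutions of inhibitor present. Antiviral activity quantified by luciferase activity, using Dual Luciferase reagents premixed with lysis buffer and read immediately.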

Q: With `C=C(C)[C@@H]1CC[C@]2(C(=O)NCCN3CCS(=O)(=O)CC3)CC[C@]3(C)[C@H](CC[C@@H]4[C@@]5(C)CC=C(c6ccc(C(=O)O)cc6)C(C)(C)[C@@H]5CC[C@]43C)[C@@H]12` [Example 106, 4-((1R,3aS,5aR,5bR,7aR,11aS,11bR,13aR,13bR)-3a-((2-(1,1-dioxido-4-thiomorpholinyl)ethyl)carbamoyl)-1-isopropenyl-5a,5b,8,8,11a-pentamethyl-2,3,3a,4,5,5a,5b,6,7,7a,8,11,11a,11b,12,13,13a,13b-octadecahydro-1H-cyclopenta[a]chrysen-9-yl)benzoic acid] as the compound, how does the EC50 (NL43, read-out: EC50 Group) read?
A: < 100 nM

Q: Which EC50 (NL43, read-out: EC50 Group) does the source give for `C=C(C)[C@@H]1CC[C@]2(C(=O)NCCN(CC(=O)O)Cc3ccccc3)CC[C@]3(C)[C@H](CC[C@@H]4[C@@]5(C)CC=C(c6ccc(C(=O)O)cc6)C(C)(C)[C@@H]5CC[C@]43C)[C@@H]12` [Example 107, 4-((1R,3aS,5aR,5bR,7aR,11aS,11bR,13aR,13bR)-3a-(2-(benzyl(carboxymethyl)amino)ethylcarbamoyl)-5a,5b,8,8,11a-pentamethyl-1-(prop-1-en-2-yl)-2,3,3a,4,5,5a,5b,6,7,7a,8,11,11a,11b,12,13,13a,13b-octadecahydro-1H-cyclopenta[a]chrysen-9-yl)benzoic acid] here?
A: < 100 nM

Q: `C=C(C)[C@@H]1CC[C@]2(C(=O)NCCN3CCNC(=O)C3)CC[C@]3(C)[C@H](CC[C@@H]4[C@@]5(C)CC=C(c6ccc(C(=O)O)cc6)C(C)(C)[C@@H]5CC[C@]43C)[C@@H]12` [Example 108, 4-((1R,3aS,5aR,5bR,7aR,11aS,11bR,13aR,13bR)-5a,5b,8,8,11a-pentamethyl-3a-(2-(3-oxopiperazin-1-yl)ethylcarbamoyl)-1-(prop-1-en-2-yl)-2,3,3a,4,5,5a,5b,6,7,7a,8,11,11a,11b,12,13,13a,13b-octadecahydro-1H-cyclopenta[a]chrysen-9-yl)benzoic acid] was tested. Which EC50 (NL43, read-out: EC50 Group) did it give?
A: < 100 nM

Q: With `C=C(C)[C@@H]1CC[C@]2(C(=O)NCCCN3CCS(=O)(=O)CC3)CC[C@]3(C)[C@H](CC[C@@H]4[C@@]5(C)CC=C(c6ccc(C(=O)O)cc6F)C(C)(C)[C@@H]5CC[C@]43C)[C@@H]12` [Example 109, 4-((1R,3aS,5aR,5bR,7aR,11aS,11bR,13aR,13bR)-3a-((3-(1,1-dioxido-4-thiomorpholinyl)propyl)carbamoyl)-1-isopropenyl-5a,5b,8,8,11a-pentamethyl-2,3,3a,4,5,5a,5b,6,7,7a,8,11,11a,11b,12,13,13a,13b-octadecahydro-1H-cyclopenta[a]chrysen-9-yl)-3-fluorobenzoic acid] as the compound, how does the EC50 (NL43, read-out: EC50 Group) read?
A: < 100 nM

Q: With `C=C(C)[C@@H]1CC[C@]2(C(=O)NCCNc3ccccc3)CC[C@]3(C)[C@H](CC[C@@H]4[C@@]5(C)CC=C(c6ccc(C(=O)O)cc6)C(C)(C)[C@@H]5CC[C@]43C)[C@@H]12` [Example 110, 4-((1R,3aS,5aR,5bR,7aR,11aS,11bR,13aR,13bR)-5a,5b,8,8,11a-pentamethyl-3a-(2-(phenylamino)ethylcarbamoyl)-1-(prop-1-en-2-yl)-2,3,3a,4,5,5a,5b,6,7,7a,8,11,11a,11b,12,13,13a,13b-octadecahydro-1H-cyclopenta[a]chrysen-9-yl)benzoic acid] as the compound, how does the EC50 (NL43, read-out: EC50 Group) read?
A: < 100 nM

Q: How did the EC50 (NL43, read-out: EC50 Group) turn out when `C=C(C)[C@@H]1CC[C@]2(C(=O)NCCN(CC(=O)O)c3ccccc3)CC[C@]3(C)[C@H](CC[C@@H]4[C@@]5(C)CC=C(c6ccc(C(=O)O)cc6)C(C)(C)[C@@H]5CC[C@]43C)[C@@H]12` [Example 111, 4-((1R,3aS,5aR,5bR,7aR,11aS,11bR,13aR,13bR)-3a-(2-((carboxymethyl)(phenyl)amino)ethylcarbamoyl)-5a,5b,8,8,11a-pentamethyl-1-(prop-1-en-2-yl)-2,3,3a,4,5,5a,5b,6,7,7a,8,11,11a,11b,12,13,13a,13b-octadecahydro-1H-cyclopenta[a]chrysen-9-yl)benzoic acid] was run?
A: < 100 nM

Q: Which EC50 (NL43, read-out: EC50 Group) does the source give for `C=C(C)[C@@H]1CC[C@]2(C(=O)NCCCN3CCS(=O)(=O)CC3)CC[C@]3(C)[C@H](CC[C@@H]4[C@@]5(C)CC=C(c6ccc(C(=O)O)c(C(=O)O)c6)C(C)(C)[C@@H]5CC[C@]43C)[C@@H]12` [Example 112, 4-((1R,3aS,5aR,5bR,7aR,11aS,11bR,13aR,13bR)-3a-((3-(1,1-dioxido-4-thiomorpholinyl)propyl)carbamoyl)-1-isopropenyl-5a,5b,8,8,11a-pentamethyl-2,3,3a,4,5,5a,5b,6,7,7a,8,11,11a,11b,12,13,13a,13b-octadecahydro-1H-cyclopenta[a]chrysen-9-yl)phthalic acid] here?
A: < 100 nM

Q: With `C=C(C)[C@@H]1CC[C@]2(C(=O)NCCN(C)C)CC[C@]3(C)[C@H](CC[C@@H]4[C@@]5(C)CC=C(c6ccc(C(=O)O)c(C(=O)O)c6)C(C)(C)[C@@H]5CC[C@]43C)[C@@H]12` [Example 113, 4-((1R,3aS,5aR,5bR,7aR,11aS,11bR,13aR,13bR)-3a-(2-(dimethylamino)ethylcarbamoyl)-5a,5b,8,8,11a-pentamethyl-1-(prop-1-en-2-yl)-2,3,3a,4,5,5a,5b,6,7,7a,8,11,11a,11b,12,13,13a,13b-octadecahydro-1H-cyclopenta[a]chrysen-9-yl)phthalic acid] as the compound, how does the EC50 (NL43, read-out: EC50 Group) read?
A: > 100 nM

Q: How did the EC50 (NL43) turn out when `C=C(C)[C@@H]1CC[C@]2(C(=O)NCCNc3ccc(C(=O)O)cc3)CC[C@]3(C)[C@H](CC[C@@H]4[C@@]5(C)CC=C(c6ccc(C(=O)O)cc6)C(C)(C)[C@@H]5CC[C@]43C)[C@@H]12` [Example 114, 4-(2-((1R,3aS,5aR,5bR,7aR,11aS,11bR,13aR,13bR)-9-(4-carboxyphenyl)-5a,5b,8,8,11a-pentamethyl-1-(prop-1-en-2-yl)-2,3,3a,4,5,5a,5b,6,7,7a,8,11,11a,11b,12,13,13a,13b-octadecahydro-1H-cyclopenta[a]chrysene-3a-carboxamido)ethylamino)benzoic acid] was run?
A: 17.6 nM

Q: With `C=C(C)[C@@H]1CC[C@]2(C(=O)NCCN(C)CCOC(=O)CCC(=O)O)CC[C@]3(C)[C@H](CC[C@@H]4[C@@]5(C)CC=C(c6ccc(C(=O)O)cc6)C(C)(C)[C@@H]5CC[C@]43C)[C@@H]12` [Example 115, 4-((1R,3aS,5aR,5bR,7aR,11aS,11bR,13aR,13bR)-3a-(2-((2-(3-carboxypropanoyloxy)ethyl)(methyl)amino)ethylcarbamoyl)-5a,5b,8,8,11a-pentamethyl-1-(prop-1-en-2-yl)-2,3,3a,4,5,5a,5b,6,7,7a,8,11,11a,11b,12,13,13a,13b-octadecahydro-1H-cyclopenta[a]chrysen-9-yl)benzoic acid] as the compound, how does the EC50 (NL43, read-out: EC50 Group) read?
A: < 100 nM

Q: For `C=C(C)[C@@H]1CC[C@]2(C(=O)NCCN3CCS(=O)(=O)CC3)CC[C@]3(C)[C@H](CC[C@@H]4[C@@]5(C)CC=C(c6ccc(C(=O)O)c(F)c6)C(C)(C)[C@@H]5CC[C@]43C)[C@@H]12` [Example 116, 4-((1R,3aS,5aR,5bR,7aR,11aS,11bR,13aR,13bR)-3a-((2-(1,1-dioxido-4-thiomorpholinyl)ethyl)carbamoyl)-1-isopropenyl-5a,5b,8,8,11a-pentamethyl-2,3,3a,4,5,5a,5b,6,7,7a,8,11,11a,11b,12,13,13a,13b-octadecahydro-1H-cyclopenta[a]chrysen-9-yl)-2-fluorobenzoic acid], which EC50 (NL43, read-out: EC50 Group) is on record?
A: < 100 nM

Q: With `C=C(C)[C@@H]1CC[C@]2(C(=O)NCCN3CCC(F)(F)CC3)CC[C@]3(C)[C@H](CC[C@@H]4[C@@]5(C)CC=C(c6ccc(C(=O)O)c(F)c6)C(C)(C)[C@@H]5CC[C@]43C)[C@@H]12` [Example 117, 4-((1R,3aS,5aR,5bR,7aR,11aS,11bR,13aR,13bR)-3a-(2-(4,4-difluoropiperidin-1-yl)ethylcarbamoyl)-5a,5b,8,8,11a-pentamethyl-1-(prop-1-en-2-yl)-2,3,3a,4,5,5a,5b,6,7,7a,8,11,11a,11b,12,13,13a,13b-octadecahydro-1H-cyclopenta[a]chrysen-9-yl)-2-fluorobenzoic acid] as the compound, how does the EC50 (NL43, read-out: EC50 Group) read?
A: < 100 nM

Q: `C=C(C)[C@@H]1CC[C@]2(C(=O)NCCN3CCC(F)(F)CC3)CC[C@]3(C)[C@H](CC[C@@H]4[C@@]5(C)CC=C(c6ccc(C(=O)O)cc6)C(C)(C)[C@@H]5CC[C@]43C)[C@@H]12` [Example 118, 4-((1R,3aS,5aR,5bR,7aR,11aS,11bR,13aR,13bR)-3a-(2-(4,4-difluoropiperidin-1-yl)ethylcarbamoyl)-5a,5b,8,8,11a-pentamethyl-1-(prop-1-en-2-yl)-2,3,3a,4,5,5a,5b,6,7,7a,8,11,11a,11b,12,13,13a,13b-octadecahydro-1H-cyclopenta[a]chrysen-9-yl)benzoic acid] was tested. Which EC50 (NL43, read-out: EC50 Group) did it give?
A: < 100 nM

Q: Which EC50 (NL43, read-out: EC50 Group) does the source give for `C=C(C)[C@@H]1CC[C@]2(C(=O)NCCN3CCC(F)(F)CC3)CC[C@]3(C)[C@H](CC[C@@H]4[C@@]5(C)CC=C(c6ccc(C(=O)O)cc6F)C(C)(C)[C@@H]5CC[C@]43C)[C@@H]12` [Example 119, 4-((1R,3aS,5aR,5bR,7aR,11aS,11bR,13aR,13bR)-3a-(2-(4,4-difluoropiperidin-1-yl)ethylcarbamoyl)-5a,5b,8,8,11a-pentamethyl-1-(prop-1-en-2-yl)-2,3,3a,4,5,5a,5b,6,7,7a,8,11,11a,11b,12,13,13a,13b-octadecahydro-1H-cyclopenta[a]chrysen-9-yl)-3-fluorobenzoic acid] here?
A: < 100 nM

Q: Which EC50 (NL43, read-out: EC50 Group) does the source give for `C=C(C)[C@@H]1CC[C@]2(C(=O)NCCN3CCS(=O)(=O)CC3)CC[C@]3(C)[C@H](CC[C@@H]4[C@@]5(C)CC=C(c6ccc(C(=O)O)cc6F)C(C)(C)[C@@H]5CC[C@]43C)[C@@H]12` [Example 120, 4-((1R,3aS,5aR,5bR,7aR,11aS,11bR,13aR,13bR)-3a-((2-(1,1-dioxido-4-thiomorpholinyl)ethyl)carbamoyl)-1-isopropenyl-5a,5b,8,8,11a-pentamethyl-2,3,3a,4,5,5a,5b,6,7,7a,8,11,11a,11b,12,13,13a,13b-octadecahydro-1H-cyclopenta[a]chrysen-9-yl)-3-fluorobenzoic acid] here?
A: < 100 nM
